Source: patent US11345681B1, “Inhibitors of fibroblast growth factor receptor kinases” (Kinnate Biopharma Inc., priority 2020, dated 2022)

Target: Wild type FGFR2 (Homo sapiens (Human), UniProt P21802)
Assay: FGFR2 kinase assay (fluorescence-based microfluidic mobility shift assay)
Type: biochemical
Conditions: wild type FGFR2 0.06 nM, 100 μM ATP, 80 minutes at room temperature; class symbols

Wild type FGFR2, sequence (P21802 22-821): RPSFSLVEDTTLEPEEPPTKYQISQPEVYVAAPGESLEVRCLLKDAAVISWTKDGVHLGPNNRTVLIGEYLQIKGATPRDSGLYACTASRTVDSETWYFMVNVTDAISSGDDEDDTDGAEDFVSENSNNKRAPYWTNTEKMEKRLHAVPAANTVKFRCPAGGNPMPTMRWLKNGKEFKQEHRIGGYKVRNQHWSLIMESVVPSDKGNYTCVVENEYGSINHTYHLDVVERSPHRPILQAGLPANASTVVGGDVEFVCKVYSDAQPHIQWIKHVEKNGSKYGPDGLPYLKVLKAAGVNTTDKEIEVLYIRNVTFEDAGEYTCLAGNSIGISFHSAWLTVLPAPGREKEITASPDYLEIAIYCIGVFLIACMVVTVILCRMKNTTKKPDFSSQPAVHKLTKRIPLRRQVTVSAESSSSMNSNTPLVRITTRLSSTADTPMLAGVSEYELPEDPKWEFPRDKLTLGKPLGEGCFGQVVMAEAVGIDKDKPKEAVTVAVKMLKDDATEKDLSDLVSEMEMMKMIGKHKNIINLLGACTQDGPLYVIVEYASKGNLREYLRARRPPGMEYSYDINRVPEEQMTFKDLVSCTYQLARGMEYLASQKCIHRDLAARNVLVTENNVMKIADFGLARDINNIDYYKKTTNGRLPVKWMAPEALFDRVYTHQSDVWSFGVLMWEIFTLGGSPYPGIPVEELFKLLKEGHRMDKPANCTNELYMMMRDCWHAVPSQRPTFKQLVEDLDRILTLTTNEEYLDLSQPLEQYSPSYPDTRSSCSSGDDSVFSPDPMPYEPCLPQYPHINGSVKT

IC50	Compound
≤ 100 nM	C=CC(=O)N1C[C@@H](n2nc(C#Cc3ccc4nn(CC)cc4c3)c(C(N)=O)c2NC)C[C@@H]1COC [Example 15, 1-((3S,5R)-1-acryloyl-5-(methoxymethyl)pyrrolidin-3-yl)-3-((2-ethyl-2H-indazol-5-yl)ethynyl)-5-(methylamino)-1H-pyrazole-4-carboxamide]
≤ 100 nM	C=CC(=O)N1C[C@@H](n2nc(C#Cc3c(F)cc4c(nc(C)n4CC)c3F)c(C(N)=O)c2NC)C[C@@H]1COC [Example 16, 1-((3S,5R)-1-acryloyl-5-(methoxymethyl)pyrrolidin-3-yl)-3-((1-ethyl-4,6-difluoro-2-methyl-1H-benzo[d]imidazol-5-yl)ethynyl)-5-(methylamino)-1H-pyrazole-4-carboxamide]
≤ 100 nM	C=CC(=O)N1C[C@@H](n2nc(C#Cc3c(F)cc4[nH]c(C)nc4c3F)c(C(N)=O)c2NC)C[C@@H]1COC [Example 17]
≤ 100 nM	C=CC(=O)N1C[C@@H](n2nc(C#Cc3c(F)cc4c(nc(C)n4C)c3F)c(C(N)=O)c2NC)C[C@@H]1COC [Example 18, 1-((3S,5R)-1-acryloyl-5-(methoxymethyl)pyrrolidin-3-yl)-3-((4,6-difluoro-1,2-dimethyl-1H-benzo[d]imidazol-5-yl)ethynyl)-5-(methylamino)-1H-pyrazole-4-carboxamide]
≤ 100 nM	C=CC(=O)N1C[C@@H](n2nc(C#Cc3c(F)cc4c(cnn4C)c3F)c(C(N)=O)c2NC)C[C@@H]1COC [Example 19, 1-((3S,5R)-1-acryloyl-5-(methoxymethyl)pyrrolidin-3-yl)-3-((4,6-difluoro-1-methyl-1H-indazo1-5-yl)ethynyl)-5-(methylamino)-1H-1-pyrazole-4-carboxamide]
≤ 100 nM	C=CC(=O)N1C[C@@H](n2nc(C#Cc3ccc4c(nc(C)n4C)c3F)c(C(N)=O)c2NC)C[C@@H]1COC [Example 20, 1-((3S,5R)-1-acryloyl-5-(pethoxymethyl)pyrrolidin-3-yl)-3-((4-fluoro-1,2-dimethyl-1H-benzo[d]imidazol-5-yl)ethynyl)-5-(methylamino)-1H-pyrazole-4-carboxamide]
≤ 100 nM	C=CC(=O)N1C[C@@H](n2nc(C#Cc3ccc4c(nc(C)n4CC)c3F)c(C(N)=O)c2NC)C[C@@H]1COC [Example 21, 1-((3S,5R)-1-acryloyl-5-(methoxymethyl)pyrrolidin-3-yl)-3-((1-ethyl-4-fluoro-2-methyl-1H-benzo[d]imidazol-5-yl)ethynyl)-5-(methylamino)-1H-pyrazole-4-carboxamide]
≤ 100 nM	C=CC(=O)N1C[C@@H](n2nc(C#Cc3cnc4c(c3)nc(C)n4CC)c(C(N)=O)c2NC)C[C@@H]1COC [Example 22, 1-((3S,5R)-1-acryloyl-5-(methoxymethyl)pyrrolidin-3-yl)-3-((3-ethyl-2-methyl-3H-imidazo[4,5-b]pyridin-6-yl)ethynyl)-5-(methylamino)-1H-pyrazole-4-carboxamide]
≤ 100 nM	C=CC(=O)N1C[C@@H](n2nc(C#Cc3cnc4c(c3)ncn4C)c(C(N)=O)c2NC)C[C@@H]1COC [Example 23, 1-((3S,5R)-1-acryloyl-5-(methoxymethyl)pyrrolidin-3-yl)-3-((3-methyl-3H-imidazo[4,5-b]pyridin-6-yl)ethynyl)-5-(methylamino)-1H-pyrazole—4-carboxamide]
100 to 1000 nM	C=CC(=O)N1C[C@@H](n2nc(C#Cc3cc4nc(C)n(CC)c4cc3C#N)c(C(N)=O)c2NC)C[C@@H]1COC [Example 24, 1-((3S,5R)-1-acryloyl-5-(methoxymethyl)pyrrolidin-3-yl)-3-((6-cyano-1-ethyl-2-methyl-1H-benzo[d]imidazol-5-yl)ethynyl)-5-(methylamino)-1H-pyrazole-4-carboxamide]
≤ 100 nM	C=CC(=O)N1C[C@@H](n2nc(C#Cc3ccc4c(c3)nc(C3CC3)n4CC)c(C(N)=O)c2NC)C[C@@H]1COC [Example 25, 1-((3S,5R)-1-acryloyl-5-(methoxymethyl)pyrrolidin-3-yl)-3-((2-cyclopropyl-1-ethyl-1H-benzo[d]imidazol-5-yl)ethynyl)-5-(methylamino)-1H-pyrazole-4-carboxamide]
